Measured values reported in PubChem BioAssay (NCI).
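Step 1: Grow cells in 96-well plates. Step 2: Expose to compound for 48 hours at 5 concentrations. Step 3: Interpolate endpoints linearly; if unreached, use highest concentration. GI50: concentration for 50% inhibition of growth. The concentration for full growth arrest is given as TGI.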

Tests used:
Assay in all cases: NCI-60 cell line screen, 48 h
[1] = system: COLO 205 colon
[2] = system: ACHN renal
[3] = system: OVCAR-5 ovarian
[4] = system: MDA-MB-231 breast
[5] = system: SF-295 CNS
[6] = system: HOP-92 NSCLC
[7] = system: CAKI-1 renal
[8] = system: SN12C renal
[9] = system: SF-539 CNS
[10] = system: RXF 393 renal
[11] = system: NCI-H460 lung
[12] = system: DU-145 prostate
[13] = system: SR leukemia
[14] = system: SF-268 CNS
[15] = system: MOLT-4 leukemia
[16] = system: A498 renal
[17] = system: SNB-75 CNS
[18] = system: TK-10 renal
[19] = system: HL-60(TB) leukemia
[20] = system: KM12 colon
[21] = system: IGROV1 ovarian
[22] = system: LOX IMVI melanoma
[23] = system: 786-0 renal
[24] = system: NCI-H522 lung
[25] = system: MALME-3M melanoma
[26] = system: NCI-H23 lung
[27] = system: BT-549 breast
[28] = system: RPMI-8226 leukemia
[29] = system: CCRF-CEM leukemia
[30] = system: MDA-MB-435
[31] = system: OVCAR-4 ovarian
[32] = system: T-47D breast
[33] = system: UO-31 renal
[34] = system: UACC-62 melanoma
[35] = system: EKVX NSCLC
[36] = system: HT29 colon
[37] = system: M14 melanoma
[38] = system: NCI/ADR-RES ovarian
[39] = system: SK-MEL-5 melanoma
[40] = system: MCF7 breast
[41] = system: OVCAR-8 ovarian
[42] = system: HS 578T breast
[43] = system: K-562 leukemia
[44] = system: SK-MEL-28 melanoma
[45] = system: U251 CNS
[46] = system: SW-620 colon
[47] = system: PC-3 prostate
[48] = system: A549 NSCLC
[49] = system: SK-MEL-2 melanoma
[50] = system: HCT-15 colon
[51] = system: SNB-19 CNS
[52] = system: HOP-62 NSCLC
[53] = system: SK-OV-3 ovarian
[54] = system: NCI-H226 lung
[55] = system: UACC-257 melanoma
[56] = system: HCC-2998 colon
[57] = system: HCT-116 colon

In the case of Nc1ccccc1NC(=O)c1ccc(NC(=O)C/C=C/c2cccnc2)cn1, the GI50 [1] is reported as 445 nM, the TGI [1] is reported as 2390 nM and the GI50 [2] is reported as 1520 nM. For the same compound, the TGI [2] was > 50000 nM, the GI50 [3] was 509 nM and the TGI [3] was > 50000 nM. The GI50 [4] was 3350 nM, the TGI [4] was > 50000 nM and the GI50 [5] was 1400 nM. For the same compound, the TGI [5] was 8280 nM, the GI50 [6] was 95.3 nM and the TGI [6] was 1260 nM. It also gave a GI50 [7] of 1680 nM, a TGI [7] of 13000 nM and a GI50 [8] of 329 nM. The TGI [8] was > 50000 nM, the GI50 [9] was 148 nM and the TGI [9] was 3070 nM. The GI50 [10] was 864 nM, the TGI [10] was 5900 nM and the GI50 [11] was 745 nM. For the same compound, the TGI [11] was > 37400 nM, the GI50 [12] was 544 nM and the TGI [12] was 2060 nM. The GI50 [13] was 435 nM, the TGI [13] was > 50000 nM and the GI50 [14] was 1300 nM. The TGI [14] was > 40000 nM, the GI50 [15] was 724 nM and the TGI [15] was > 50000 nM. It also gave a GI50 [16] of 347 nM, a TGI [16] of 1620 nM and a GI50 [17] of 674 nM. For the same compound, the TGI [17] was > 47600 nM, the GI50 [18] was 58.3 nM and the TGI [18] was 1800 nM. For the same compound, the GI50 [19] was 284 nM, the TGI [19] was > 29400 nM and the GI50 [20] was 1430 nM. The TGI [20] was > 20500 nM, the GI50 [21] was 601 nM and the TGI [21] was > 50000 nM. It also gave a GI50 [22] of 286 nM, a TGI [22] of 3950 nM and a GI50 [23] of 1520 nM. For the same compound, the TGI [23] was 8170 nM, the GI50 [24] was 334 nM and the TGI [24] was 3370 nM. For the same compound, the GI50 [25] was 190 nM, the GI50 [26] was 1450 nM and the TGI [26] was > 24900 nM. The GI50 [27] was 777 nM, the TGI [27] was 3730 nM and the GI50 [28] was 336 nM. The TGI [28] was > 10200 nM, the GI50 [29] was 216 nM and the TGI [29] was > 50000 nM. The GI50 [30] was 1100 nM, the TGI [30] was > 16000 nM and the GI50 [31] was 1990 nM. The TGI [31] was > 50000 nM, the GI50 [32] was 279 nM and the TGI [32] was > 13700 nM. For the same compound, the GI50 [33] was 702 nM, the TGI [33] was 16600 nM and the GI50 [34] was 745 nM. For the same compound, the TGI [34] was 3600 nM, the GI50 [35] was 2380 nM and the TGI [35] was > 50000 nM. The GI50 [36] was 531 nM, the TGI [36] was > 33900 nM and the GI50 [37] was 704 nM. The TGI [37] was 11400 nM, the GI50 [38] was 1160 nM and the TGI [38] was > 50000 nM. The GI50 [39] was 958 nM, the TGI [39] was 2370 nM and the GI50 [40] was 806 nM. The TGI [40] was > 13500 nM, the GI50 [41] was 83.9 nM and the TGI [41] was > 50000 nM. It also gave a GI50 [42] of 826 nM, a TGI [42] of 37100 nM and a GI50 [43] of 213 nM. The TGI [43] was > 50000 nM, the GI50 [44] was 866 nM and the TGI [44] was 2650 nM. For the same compound, the GI50 [45] was 732 nM, the TGI [45] was > 23600 nM and the GI50 [46] was 188 nM. The TGI [46] was > 14800 nM, the GI50 [47] was 806 nM and the TGI [47] was > 50000 nM. For the same compound, the GI50 [48] was 2040 nM, the TGI [48] was > 50000 nM and the GI50 [49] was 816 nM. For the same compound, the TGI [49] was 5090 nM, the GI50 [50] was 523 nM and the TGI [50] was > 50000 nM. For the same compound, the GI50 [51] was 1720 nM, the TGI [51] was > 50000 nM and the GI50 [52] was 1110 nM. The TGI [52] was > 24900 nM, the GI50 [53] was 1670 nM and the TGI [53] was > 27400 nM. It also gave a GI50 [54] of 1080 nM, a TGI [54] of 19600 nM and a GI50 [55] of 798 nM. For the same compound, the TGI [55] was > 13300 nM, the GI50 [56] was 801 nM and the TGI [56] was 4260 nM.

Work on C#C[C@]1(O)CC[C@H]2[C@@H]3CC=C4c5sc(N6CCN(C)CC6)nc5CC[C@]4(C)[C@H]3CC[C@@]21C yielded a GI50 [57] of 1780 nM, a TGI [57] of 3380 nM and a GI50 [1] of 1980 nM. It also gave a TGI [1] of 3830 nM, a GI50 [2] of 1790 nM and a TGI [2] of 3250 nM. For the same compound, the GI50 [3] was 1820 nM, the TGI [3] was 3530 nM and the GI50 [4] was 1930 nM. The TGI [4] was 3730 nM, the GI50 [5] was 1870 nM and the TGI [5] was 3960 nM. It also gave a GI50 [7] of 1560 nM, a TGI [7] of 3080 nM and a GI50 [8] of 1770 nM. It also gave a TGI [8] of 3430 nM, a GI50 [9] of 1450 nM and a TGI [9] of 2900 nM. For the same compound, the GI50 [10] was 1420 nM, the TGI [10] was 3050 nM and the GI50 [11] was 1990 nM. It also gave a TGI [11] of 3800 nM, a GI50 [12] of 2230 nM and a TGI [12] of 5130 nM. It also gave a GI50 [13] of 1560 nM, a TGI [13] of 5390 nM and a GI50 [14] of 2010 nM. It also gave a TGI [14] of 4310 nM, a GI50 [15] of 1890 nM and a TGI [15] of 4660 nM. The GI50 [16] was 4250 nM, the TGI [16] was 16900 nM and the GI50 [17] was 1690 nM. It also gave a TGI [17] of 3870 nM, a GI50 [18] of 2360 nM and a TGI [18] of 4550 nM. The GI50 [20] was 1920 nM, the TGI [20] was 4080 nM and the GI50 [21] was 1870 nM. It also gave a TGI [21] of 3620 nM, a GI50 [22] of 1700 nM and a TGI [22] of 3330 nM. The GI50 [23] was 1700 nM, the TGI [23] was 3150 nM and the GI50 [24] was 1480 nM. The TGI [24] was 3300 nM, the GI50 [25] was 1760 nM and the TGI [25] was 3280 nM. The GI50 [26] was 1760 nM, the TGI [26] was 3590 nM and the GI50 [27] was 1900 nM. The TGI [27] was 3950 nM, the GI50 [28] was 1600 nM and the TGI [28] was 4160 nM. The GI50 [29] was 2230 nM, the TGI [29] was 4740 nM and the GI50 [30] was 1160 nM. It also gave a TGI [30] of 2530 nM, a GI50 [31] of 1940 nM and a TGI [31] of 4020 nM. For the same compound, the GI50 [32] was 12100 nM, the TGI [32] was 30100 nM and the GI50 [33] was 1740 nM. The TGI [33] was 3170 nM, the GI50 [34] was 1790 nM and the TGI [34] was 3420 nM. For the same compound, the GI50 [35] was 1840 nM, the TGI [35] was 3830 nM and the GI50 [36] was 1760 nM. It also gave a TGI [36] of 4180 nM, a GI50 [37] of 1540 nM and a TGI [37] of 2970 nM. The GI50 [38] was 2180 nM, the TGI [38] was 5710 nM and the GI50 [39] was 1740 nM. The TGI [39] was 3200 nM, the GI50 [40] was 1830 nM and the TGI [40] was 3800 nM. For the same compound, the GI50 [41] was 1810 nM, the TGI [41] was 3410 nM and the GI50 [42] was 2420 nM. For the same compound, the TGI [42] was 8440 nM, the GI50 [43] was 1340 nM and the TGI [43] was 4500 nM. It also gave a GI50 [44] of 1680 nM, a TGI [44] of 3190 nM and a GI50 [45] of 1510 nM. For the same compound, the TGI [45] was 2870 nM, the GI50 [46] was 1810 nM and the TGI [46] was 3450 nM. It also gave a GI50 [47] of 1610 nM, a TGI [47] of 3070 nM and a GI50 [48] of 1830 nM. It also gave a TGI [48] of 3390 nM, a GI50 [50] of 1250 nM and a TGI [50] of 2930 nM. For the same compound, the GI50 [51] was 1810 nM, the TGI [51] was 3750 nM and the GI50 [52] was 1710 nM. The TGI [52] was 3270 nM, the GI50 [53] was 1680 nM and the TGI [53] was 3180 nM. The GI50 [54] was 9830 nM, the TGI [54] was 28800 nM and the GI50 [55] was 1770 nM. The TGI [55] was 3270 nM, the GI50 [56] was 2060 nM and the TGI [56] was 4350 nM.
